# Results taken from publication PMC3543460, “Structure-Activity Relationships of the Antimicrobial Peptide Arasin 1 — And Mode of Action Studies of the N-Terminal, Proline-Rich Region” (PLoS ONE, 2013).
# Peptide text beside a SMILES is read from it. * marks the point of attachment. Acm = CC(=O)NC*
# What was measured:
# E. coli ATCC 25922 = assay type: cell-based, Escherichia coli; settings: ATCC 25922, 24 h
# Protocol: (§1) Escherichia coli (ATCC 25922), E. coli HB101, Pseudomonas aeruginosa (ATCC 27853), Staphylococcus aureus (ATCC 9144) and Corynebacterium glutamicum (ATCC 13032) were grown at 37°C in Mueller Hinton agar (MH; Difco Laboratories, Detroit, USA). The yeasts Candida albicans (ATCC 10231) and Saccharomyces cerevisiae spp and the mold Botrytis cinerea 101 [33] were cultivated on potato dextrose agar supplemented with 2% glucose at room temperature (RT).
# (§2) Determination of the MIC against bacteria was performed by continuous monitoring of bacterial growth using a Bioscreen C microbiology reader (Labsystems Oy, Helsinki, Finland). The synthetic peptides were tested for antibacterial and antifungal activity at final concentrations (prepared from serial two-fold dilutions) ranging from 0.2 µM to 100 µM. The test was performed in 100-well flat-bottomed honeycomb plates, in which 50 µl peptide solution was incubated with 50 µl of a suspension of an actively growing culture of bacteria diluted to a starting concentration of 2.5×10^5 CFU/ml in Mueller Hinton Broth (MHB). The growth chamber was maintained at 37°C during the incubation period. The absorbance was measured by a turbidometric method with vertical light photometry and a wide band filter (420–580 nm). MIC was defined as the lowest concentration resulting in no visible bacterial growth after 24 h.
# E. coli HB101 = test: Antibacterial MIC assay (Bioscreen C growth monitoring); assay type: cell-based, Escherichia coli; settings: lowest concentration with no visible bacterial growth after 24 h; 37°C, 50% MH, 2.5×10^5 cells/mL; representative of three individual experiments
# Protocol: as §1, §2
# P. aeruginosa ATCC 27853 = assay type: cell-based, Pseudomonas aeruginosa; settings: ATCC 27853, 24 h
# Protocol: as §1, §2
# C. glutamicum ATCC 13032 = assay type: cell-based, Corynebacterium glutamicum; settings: ATCC 13032, 24 h
# Protocol: as §1, §2
# S. aureus ATCC 9144 = assay type: cell-based, Staphylococcus aureus; settings: ATCC 9144, 24 h
# Protocol: as §1, §2
# S. cerevisiae spp. = assay type: cell-based, Saccharomyces cerevisiae; settings: 48 h
# Protocol: as §1
# (§3) Fungal spores were dissolved in potato dextrose broth (Difco, Lawrence, KS, USA) and the cell concentration was determined and adjusted after counting in a Bürker chamber. Botrytis cinerea was filtered through a piece of cotton before counting. An aliquot of 50 µl of fungal spores (final concentration 2×10^5 spores/ml) were inoculated in 96-well Nunclon™ microtitre plates (Nagle Nunc Int. Roskilde, Denmark) along with 50 µl of synthetic peptide dissolved in Milli-Q water. Cultures were grown in a dark moist chamber without shaking at 20°C for S. cerevisiae and B. cinerea, and at 37°C for C. albicans. Growth inhibition was determined microscopically after 48 h of incubation. Inhibitory concentrations (IC50) was defined as the lowest concentration tested which yielded less than 50% visible growth compared to the growth control (fungi). Each peptide was tested in parallels in three individual runs for the antimicrobial assays.
# C. albicans ATCC 10231 = assay type: cell-based, Candida albicans; settings: for IC50: ATCC 10231, 48 h; for IC50 C. albicans ATCC 10231: lowest concentration tested giving less than 50% visible growth vs growth control, potato dextrose medium, 37°C, 48 h, three individual experiments
# Protocol: as §1, §3
# B. cinerea 101 = assay type: cell-based, Botrytis cinerea; settings: for IC50 B. cinerea 101: lowest concentration tested giving less than 50% visible growth vs growth control, potato dextrose medium, 20°C, 48 h, three individual experiments; for IC50: 101, 48 h
# Protocol: as §1, §3
SMILES,MIC E. coli ATCC 25922 (E. coli ATCC 25922),MIC E. coli HB101 (E. coli HB101),MIC P. aeruginosa ATCC 27853 (P. aeruginosa ATCC 27853),MIC C. glutamicum ATCC 13032 (C. glutamicum ATCC 13032),MIC S. aureus ATCC 9144 (S. aureus ATCC 9144),IC50 (S. cerevisiae spp.),IC50 (C. albicans ATCC 10231),IC50 B. cinerea 101 (B. cinerea 101),IC50 (B. cinerea 101),IC50 C. albicans ATCC 10231 (C. albicans ATCC 10231)
CC[C@H](C)[C@H](NC(=O)[C@@H]1CCCN1C(=O)[C@H](CCCCN)NC(=O)[C@@H]1CCCN1C(=O)[C@H](CCCNC(=N)N)NC(=O)CNC(=O)[C@@H]1CCCN1C(=O)[C@H](Cc1ccccc1)NC(=O)[C@@H]1CCCN1C(=O)[C@H](CCCNC(=N)N)NC(=O)[C@@H]1CCCN1C(=O)[C@H](CCCNC(=N)N)NC(=O)CN)C(=O)N[C@@H](Cc1ccccc1)C(=O)N[C@@H](CCCNC(=N)N)C(=O)N1CCC[C@H]1C(=O)N[C@@H](CCCNC(=N)N)C(N)=O [Arasin 1(7–23)] (H-GRPRPFPGRPKPIFRPR-NH2; N-terminus assumed),50 to 100 µM,25 µM,50 to 100 µM,3.1 µM,>100 µM,12.5 µM,25 µM,50 µM,,
N=C(N)NCCC[C@H](NC(=O)[C@@H](N)CO)C(=O)N[C@@H](Cc1c[nH]c2ccccc12)C(=O)N1CCC[C@H]1C(=O)N[C@@H](CO)C(=O)N1CCC[C@H]1C(=O)NCC(=O)N[C@@H](CCCNC(=N)N)C(=O)N1CCC[C@H]1C(=O)N[C@@H](CCCNC(=N)N)C(=O)N1CCC[C@H]1C(=O)N[C@@H](Cc1ccccc1)C(=O)N1CCC[C@H]1C(=O)NCC(=O)O [Arasin 1(1–14)] (H-SRWPSPGRPRPFPG-OH; N-terminus and C-terminus assumed),>100 µM,,>100 µM,>100 µM,>100 µM,> 100 µM,> 100 µM,,> 100 µM,
CC[C@H](C)[C@H](NC(=O)[C@@H]1CCCN1C(=O)[C@H](CCCCN)NC(=O)[C@@H]1CCCN1C(=O)[C@H](CCCNC(=N)N)NC(=O)CNC(=O)[C@@H]1CCCN1C(=O)[C@H](Cc1ccccc1)NC(=O)[C@@H]1CCCN1C(=O)[C@H](CCCNC(=N)N)NC(=O)[C@@H]1CCCN1C(=O)[C@H](CCCNC(=N)N)NC(=O)CNC(=O)[C@@H]1CCCN1C(=O)[C@H](CO)NC(=O)[C@@H]1CCCN1C(=O)[C@H](Cc1c[nH]c2ccccc12)NC(=O)[C@H](CCCNC(=N)N)NC(=O)[C@@H](N)CO)C(=O)N[C@@H](Cc1ccccc1)C(=O)O [Arasin 1(1–20)] (H-SRWPSPGRPRPFPGRPKPIF-OH; N-terminus and C-terminus assumed),>100 µM,,>100 µM,12.5 to 25 µM,>100 µM,25 µM,,,25 to 50 µM,50 µM
CC[C@H](C)[C@H](NC(=O)[C@@H]1CCCN1C(=O)[C@H](CCCCN)NC(=O)[C@@H]1CCCN1C(=O)[C@H](CCCNC(=N)N)NC(=O)CNC(=O)[C@@H]1CCCN1C(=O)[C@H](Cc1ccccc1)NC(=O)[C@@H]1CCCN1C(=O)[C@H](CCCNC(=N)N)NC(=O)[C@@H]1CCCN1C(=O)[C@H](CCCNC(=N)N)NC(=O)CNC(=O)[C@@H]1CCCN1C(=O)[C@@H](N)CO)C(=O)N[C@@H](Cc1ccccc1)C(=O)N[C@@H](CCCNC(=N)N)C(=O)N1CCC[C@H]1C(=O)N[C@@H](CCCNC(=N)N)C(N)=O [Arasin 1(5–23)] (H-SPGRPRPFPGRPKPIFRPR-NH2; N-terminus assumed),>100 µM,100 µM,>100 µM,6.3 µM,>100 µM,12.5 µM,25 µM,,25 µM,
CC[C@H](C)[C@H](NC(=O)[C@@H]1CCCN1C(=O)[C@H](CCCCN)NC(=O)[C@@H]1CCCN1C(=O)[C@H](CCCNC(=N)N)NC(=O)CNC(=O)[C@@H]1CCCN1C(=O)[C@H](Cc1ccccc1)NC(=O)[C@@H]1CCCN1C(=O)[C@H](CCCNC(=N)N)NC(=O)[C@@H]1CCCN1C(=O)[C@H](CCCNC(=N)N)NC(=O)CNC(=O)[C@@H]1CCCN1C(=O)[C@H](CO)NC(=O)[C@@H]1CCCN1C(=O)[C@@H](N)Cc1c[nH]c2ccccc12)C(=O)N[C@@H](Cc1ccccc1)C(=O)N[C@@H](CCCNC(=N)N)C(=O)N1CCC[C@H]1C(=O)N[C@@H](CCCNC(=N)N)C(N)=O [Arasin 1(3–23)] (H-WPSPGRPRPFPGRPKPIFRPR-NH2; N-terminus assumed),25 to 50 µM,12.5 µM,100 µM,3.1 µM,>100 µM,12.5 µM,25 µM,,25 µM,
CC[C@H](C)[C@H](NC(=O)[C@@H]1CCCN1C(=O)[C@H](CCCCN)NC(=O)[C@@H]1CCCN1C(=O)[C@H](CCCNC(=N)N)NC(=O)CNC(=O)[C@@H]1CCCN1C(=O)[C@H](Cc1ccccc1)NC(=O)[C@@H]1CCCN1C(=O)[C@H](CCCNC(=N)N)NC(=O)[C@@H]1CCCN1C(=O)[C@H](CCCNC(=N)N)NC(=O)CNC(=O)[C@@H]1CCCN1C(=O)[C@H](CO)NC(=O)[C@@H]1CCCN1C(=O)[C@H](Cc1c[nH]c2ccccc12)NC(=O)[C@H](CCCNC(=N)N)NC(=O)[C@@H](N)CO)C(=O)N[C@@H](Cc1ccccc1)C(=O)N[C@@H](CCCNC(=N)N)C(=O)N1CCC[C@H]1C(=O)N[C@@H](CCCNC(=N)N)C(=O)N1CCC[C@H]1C(=O)N[C@@H](CSCNC(C)=O)C(=O)N[C@@H](CC(N)=O)C(=O)N[C@@H](CSCNC(C)=O)C(=O)N[C@@H](Cc1ccc(O)cc1)C(=O)N[C@@H](C)C(=O)N1CCC[C@H]1C(=O)N1CCC[C@H]1C(=O)N[C@@H](CSCNC(C)=O)C(=O)N1CCC[C@H]1C(=O)N[C@@H](CSCNC(C)=O)C(=O)N[C@@H](CC(=O)O)C(=O)N[C@@H](CCCNC(=N)N)C(=O)N[C@@H](Cc1c[nH]c2ccccc12)C(=O)O [Arasin 1-Acm] (H-SRWPSPGRPRPFPGRPKPIFRPRPC(Acm)NC(Acm)YAPPC(Acm)PC(Acm)DRW-OH; N-terminus and C-terminus assumed),25 to 50 µM,,100 µM,0.8 µM,>100 µM,12.5 µM,25 µM,,12.5 to 50 µM,
CC[C@H](C)[C@H](NC(=O)[C@@H]1CCCN1C(=O)[C@H](CCCCN)NC(=O)[C@@H]1CCCN1C(=O)[C@H](CCCNC(=N)N)NC(=O)CNC(=O)[C@@H]1CCCN1C(=O)[C@H](Cc1ccccc1)NC(=O)[C@@H]1CCCN1C(=O)[C@H](CCCNC(=N)N)NC(=O)[C@@H]1CCCN1)C(=O)N[C@@H](Cc1ccccc1)C(=O)N[C@@H](CCCNC(=N)N)C(=O)N1CCC[C@H]1C(=O)N[C@@H](CCCNC(=N)N)C(N)=O [Arasin 1(9–23)] (H-PRPFPGRPKPIFRPR-NH2; N-terminus assumed),>100 µM,100 µM,>100 µM,12.5 µM,>100 µM,25 µM,,50 µM,,50 µM
